Source: patent US20020058072A1, “Use of iodide salt as an aphrodisiac” (priority 2000, published 2002)

Test system: human
Assay: Oral administration to an adult human: aphrodisiac effect and increased vaginal lubrication
Type: in vivo
Conditions: 3 ml of 5M sodium iodide in water added to 20 ml lemon juice plus 1 tbsp sugar; patient
Description: The terms “aphrodisiac” or “heightened sexual desire”, for the purposes of the present invention, refer to the following physical manifestations including clitoral swelling, nipple erection, contraction of the vaginal musculature, and a general tingling sensation.
Specifically, after oral administration of an iodide salt, the subject experienced increased vaginal lubrication. The term “increased vaginal lubrication”, as used herein, refers to an increased amount of transudate present in the vagina above the amount of transudate present in the vagina above the amount of transudate present in the unstimulated state.
The syrup was administered orally to a human, weighing approximately 165 pounds. About 0.5 to 3.0 teaspoons of the hydriodic acid syrup was admixed with approximately 8 ounces of tap water and then ingested.
To 20 ml of lemon juice are added 3 ml of a 5M solution of sodium iodide in water, and 1 tbsp of sugar is added to the resultant solution.

## [I-].[Na+] [sodium iodide]
  reaction observed after administration (arousal, vaginal lubrication): arousal and increased vaginal lubrication
